Experimental findings from patent US6486096B1, “Herbicidal compositions with acylated aminophenylsulfonylureas” (priority 1998, dated 2002) are described below.

Each structure is given as a SMILES string. “And” between values parts separate entries of the source, which are not always exact repeats. Equal values may be shown once. Read-outs that look alike come from different tables or passages of the source.

Format in all cases: in vivo
One series relates to corn. The conditions noted are these: post-emergence. How it is done: (§1) The herbicidal activity of the active substances or active substance mixtures was scored visually with the aid of the treated parcels in comparison with untreated control parcels. Damage to and development of all above-ground parts of plants was recorded here. Scoring was carried out on a percentage scale (100% action=all plants died; 50% action=50% of the plants and green plant parts died; 0% action=no discernible action=like control parcels. The mean of the scoring values of 4 parcels in each case was taken.
(§2) Crop plants were raised outdoors under natural outdoor conditions on plots in which seeds or rhizome sections of typical harmful plants had been sown or the natural weed infestation was used. The treatment with the compositions according to the invention was carried out after the emergence of the harmful plants and the crop plants, as a rule in the 2 to 4-leaf stage; in some cases (as indicated) the application of individual active substances or active substance combinations was carried out pre-emergence (cf. Example 1) or as a sequence treatment, in some cases pre-emergence and/or post-emergence.
(§3) After the application, e.g. 2, 4, 6 and 8 weeks after application, the action of the preparations was scored visually in comparison with untreated controls (cf. score in Example 1). […] The crop plants, however, were not damaged or were only insignificantly damaged as a result of the treatment with the herbicidal compositions.

In another series the test system is Digitaria sanguinalis. Briefly: Herbicidal action, visual scoring. The following applies: post-emergence, scoring 4 weeks after application. How it is done:
as §1
(§4) Seeds or rhizome pieces of monocotyledonous and dicotyledonous weeds are placed in sandy loam soil in pots, covered with soil and grown in the greenhouse under good growth conditions (temperature, humidity, water supply). Three weeks after sowing, the test plants in the three-leaf stage are treated with the compositions according to the invention. The compositions according to the invention which are formulated as wettable powders or as emulsion concentrates are sprayed in various dosages on the green parts of the plants at an application rate of 600 to 800 l of water/ha (converted). After the test plants have remained in the greenhouse for about 3 to 4 weeks under optimal growth conditions, the effect of the products is scored visually by comparison with untreated controls. When applied post-emergence, too, the compositions according to the invention have a good herbicidal activity against a broad spectrum of economically important grass weeds and broad-leaved weeds.
as §2, §3

Series [1] concerns CHEAL = Chenopodium album. Briefly: Herbicidal action, visual scoring. The following applies: Table 9, post-emergence, scoring 3 weeks after application, g of A.S./ha by row: r6 120, r7 60, r8 30, r9 15, r10 60, r11 30, r12 15, r13 30 + 30, r14 15 + 30, r15 30 + 15, r16 2000, r17 1000, r18 500, r19 30 + 1000, r20 15 + 1000, r21 30 + 500. How it is done:
as §1, §4, §2, §3

Another series deals with Ipomoea purpurea. The series can be described thus: Herbicidal action, visual scoring. The conditions noted are these: Table 1, post-emergence, scoring 3 weeks after application, g of A.S./ha: 45, 60, 75, 1000, 2000, 3000, 75 + 1000. As to the method: as §1, §4, §2, §3
Series [2] has as its system POLCO = Polygonum convolvulus. The series can be described thus: Herbicidal action, visual scoring. The following applies: Table 15; post-emergence; scoring 4 weeks after application; g of A.S./ha by row: r6 30, r7 15, r8 7.5, r9 900, r10 450, r12 600, r14 20, r16 30 + 450, r17 7.5 + 900, r18 30 + 600, r19 7.5 + 600, r20 15 + 20, r21 7.5 + 20. How it is done: The herbicidal activity of the active substances or active substance mixtures was scored visually with the aid of the treated parcels in comparison with untreated control parcels. Damage to and development of all above-ground parts of plants was recorded here. Scoring was carried out on a percentage scale (100% action=all plants died; 50% action=50% of the plants and green plant parts died; 0% action=no discernible action=like control parcels. The mean of the scoring values of 4 parcels in each case was taken. […]
as §2, §3

Another series has as its system SOLNI. The series can be described thus: Herbicidal action, visual scoring. The following applies: Table 10, post-emergence, scoring 3 weeks after application, g of A.S./ha by row: r7 120, r8 60, r9 30, r10 15, r11 12, r12 6, r13 3, r14 30 + 6, r16 15 + 6, r18 30 + 3. How it is done:
as §1, §4, §2, §3

The mark [3] stands for this setting: Table 9, scoring 3 weeks after application, g of A.S./ha by row: r6 120, r7 60, r8 30, r9 15, r10 60, r11 30, r12 15, r13 30 + 30, r14 15 + 30, r15 30 + 15, r16 2000, r17 1000, r18 500, r19 30 + 1000, r20 15 + 1000, r21 30 + 500.

For `CCc1cccc(CC)c1N(COC)C(=O)CCl` [(B1.1.1), alachlor], the Damage on corn with corn (Table 17, scoring 4 weeks after application, g of A.S./ha by row: r6 60, r7 30, r8 15, r9 2000, r10 1000, r11 500, r12 15 + 1000, r13 30 + 500, r14 2000, r15 1000, r16 500, r17 30 + 500, r18 15 + 500, r19 15 + 1000) turned out to be 0%. For the same compound, the “Herbicidal action Digitaria sanguinalis” value with Digitaria sanguinalis (Table 17, g of A.S./ha by row: r6 60, r7 30, r8 15, r9 2000, r10 1000, r11 500, r12 15 + 1000, r13 30 + 500, r14 2000, r15 1000, r16 500, r17 30 + 500, r18 15 + 500, r19 15 + 1000, 500 g A.S./ha) turned out to be 40%; in the series with Digitaria sanguinalis (Table 17, g of A.S./ha by row: r6 60, r7 30, r8 15, r9 2000, r10 1000, r11 500, r12 15 + 1000, r13 30 + 500, r14 2000, r15 1000, r16 500, r17 30 + 500, r18 15 + 500, r19 15 + 1000, 1000 g A.S./ha) it was 50%; with Digitaria sanguinalis (Table 17, g of A.S./ha by row: r6 60, r7 30, r8 15, r9 2000, r10 1000, r11 500, r12 15 + 1000, r13 30 + 500, r14 2000, r15 1000, r16 500, r17 30 + 500, r18 15 + 500, r19 15 + 1000, 2000 g A.S./ha), 65%.
As to `CCc1cccc(C)c1N(C(=O)CCl)C(C)COC` (stereo not shown) [(B1.1.2), metolachlor], the Damage on corn with corn (setting [3]) came to 0%. The “Herbicidal action CHEAL” value in series [1] was 0%.
As for `CCNc1nc(Cl)nc(NC(C)C)n1` [(B1.2.1), atrazine], in the series with corn (Table 1, scoring 3 weeks after application, g of A.S./ha: 45, 60, 75, 1000, 2000, 3000, 75 + 1000), the Damage on corn is listed as 0%. The “Herbicidal action against Ipomoea purpurea” value stood at 70% in the series with Ipomoea purpurea (1000 g active substance per ha), 85% with Ipomoea purpurea (2000 g active substance per ha) and 90% with Ipomoea purpurea (3000 g active substance per ha).
On to `CCNc1nc(Cl)nc(NC(C)(C)C#N)n1` [(B1.2.3), cyanazine], for which the Damage on corn in the series with corn (Table 14, scoring 4 weeks after application, g of A.S./ha by row: r6 30, r7 15, r8 7.5, r9 2200, r10 1100, r11 550, r12 7.5 + 2200, r13 7.5 + 1100) was 12% and 5% and 15%.
In the case of `CC(C)N(C(=O)COc1nnc(C(F)(F)F)s1)c1ccc(F)cc1` [(B1.2.7), fluthiamid], the Damage on corn with corn (Table 15, scoring 4 weeks after application, g of A.S./ha by row: r6 30, r7 15, r8 7.5, r9 900, r10 450, r12 600, r14 20, r16 30 + 450, r17 7.5 + 900, r18 30 + 600, r19 7.5 + 600, r20 15 + 20, r21 7.5 + 20) came to 0%. Also, the “Herbicidal action Polygonum convolvulus” value in series [2] amounted to 25%.
With `COc1cc(OC)nc(NC(=O)NS(=O)(=O)c2ncccc2C(=O)N(C)C)n1` [(B1.3.1), nicosulfuron], the Damage on corn in the series on corn (setting [3]) came to 0%. Besides, the “Herbicidal action CHEAL” value in series [1] (15 g active substance/ha) came to 55%; in series [1] (30 g active substance/ha), 65%; in series [1] (60 g active substance/ha), 90%.
As to `CCS(=O)(=O)c1cccnc1S(=O)(=O)NC(=O)Nc1nc(OC)cc(OC)n1` [(B1.3.2), rimsulfuron], the “Herbicidal action SOLNI” value in the series on SOLNI (3 g active substance per ha) amounted to 35%; in the series with SOLNI (6 g active substance per ha) it was 45%; with SOLNI (12 g active substance per ha), 60%.
For `CS(=O)(=O)c1ccc(C(=O)C2C(=O)CCCC2=O)c(Cl)c1` [(B1.4.2), sulcotrione], the Damage on corn in the series on corn (Table 11, scoring 3 weeks after application, g of A.S./ha by row: r6 120, r7 60, r8 30, r9 15, r10 2000, r11 1000, r12 500, r13 30 + 1000, r14 15 + 1000, r15 30 + 500, r16 600, r17 300, r18 150, r19 30 + 300, r20 15 + 300, r21 30 + 150) turned out to be 0%.
With `CS(=O)(=O)c1cc(Cl)ccc1C(=O)c1cnoc1C1CC1` [(B1.4.6), isoxachlortole], the Damage on corn with corn (Table 18, scoring 4 weeks after application, g of A.S./ha by row: r6 45, r7 22.5, r8 12.5, r9 25, r12 12.5 + 25, r13 12.5 + 12.5) is given as 12%. Further, the “Herbicidal action Digitaria sanguinalis” value in the series on Digitaria sanguinalis (Table 18, g of A.S./ha by row: r6 45, r7 22.5, r8 12.5, r9 25, r10 12.5, r12 12.5 + 25, r13 12.5 + 12.5, 12.5 g of A.S./ha) is 30%; in the series on Digitaria sanguinalis (Table 18, g of A.S./ha by row: r6 45, r7 22.5, r8 12.5, r9 25, r10 12.5, r12 12.5 + 25, r13 12.5 + 12.5, 25 g of A.S./ha), 45%.
Turning to `COc1cc(OC)n2nc(S(=O)(=O)Nc3c(Cl)ccc(C)c3Cl)nc2n1` [(B1.5.1), metosulam], the “Herbicidal action Polygonum convolvulus” value in series [2] was found to be 55%.
On to `O=C(O)c1nc(Cl)ccc1Cl` [(B2.3.6), clopyralid], for which the Damage on corn in the series with corn (Table 19, scoring 3 weeks after application, g of A.S./ha by row: r6 60, r7 30, r8 15, r9 120, r10 60, r11 30, r12 30 + 30, r13 30 + 60, r14 60 + 30) was 0% and 3%.
As for `COc1nc(NC(=O)NS(=O)(=O)c2ccccc2C(F)(F)F)nc(C(F)(F)F)n1` [(B2.4.5), tritosulfuron], the Damage on corn with corn (Table 7, scoring 3 weeks after application, g of A.S./ha by row: r6 15, r7 30, r8 45, r9 60, r10 2.5, r11 5, r12 15 + 2.5, r13 15 + 5) was found to be 1%.
As to `Cc1cc(Cl)ccc1OCC(=O)O` [(B2.5.2), MCPA], the Damage on corn in the series on corn (Table 16, scoring 4 weeks after application, g of A.S./ha: 60, 30, 15, 1500, 750, 375, 30 + 750, 30 + 375, 15 + 750, 60 + 375) was 6% and 0% and 10%.
